Laboratory results from ChEMBL document CHEMBL5042489, “Inhibitors of the Hippo Pathway Kinases STK3/MST2 and STK4/MST1 Have Utility for the Treatment of Acute Myeloid Leukemia” (J Med Chem, 2022).
Calls of active or inactive are those of the source. No cut-off for these calls is given here.

Legend:
[1] = Drug concentration in C57BL/6 mouse plasma at 20 mg/kg, ip measured after 30 mins by LC-MS/MS analysis; format: ADME, organism-based
[2] = molecular target: T1, Serine/threonine-protein kinase 3 (Homo sapiens, UniProt Q13188)
T1 sequence (Q13188 whole entry): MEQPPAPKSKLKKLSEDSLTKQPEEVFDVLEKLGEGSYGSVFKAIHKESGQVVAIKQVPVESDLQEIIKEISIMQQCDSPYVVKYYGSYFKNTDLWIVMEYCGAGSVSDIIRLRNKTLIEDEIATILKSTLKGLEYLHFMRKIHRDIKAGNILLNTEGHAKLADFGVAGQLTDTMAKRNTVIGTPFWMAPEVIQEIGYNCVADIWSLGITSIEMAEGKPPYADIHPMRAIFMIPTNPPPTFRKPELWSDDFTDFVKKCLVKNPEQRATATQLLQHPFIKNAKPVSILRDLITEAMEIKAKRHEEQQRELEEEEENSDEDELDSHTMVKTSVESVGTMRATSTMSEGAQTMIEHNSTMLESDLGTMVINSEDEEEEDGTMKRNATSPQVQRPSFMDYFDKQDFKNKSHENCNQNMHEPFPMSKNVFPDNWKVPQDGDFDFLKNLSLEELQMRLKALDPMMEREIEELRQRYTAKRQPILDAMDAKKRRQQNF

[3] = molecular target: Leucine-rich repeat serine/threonine-protein kinase 2 (Homo sapiens, UniProt Q5S007); test: Displacement of K5 tracer from full length C-terminal NanoLuc fused human LRRK2 expressed in HEK293T cells incubated for 2 hrs by NanoBRET assay; format: cell-based
[4] = molecular target: T1, Serine/threonine-protein kinase 3; remark: listed apart in the source
Description: Displacement of K5 tracer from full length C-terminal NanoLuc fused human STK3 expressed in HEK293T cells incubated for 2 hrs by NanoBRET assay

[5] = molecular target: T2, Serine/threonine-protein kinase 3 (Homo sapiens) (UniProt Q13188); test: Inhibition of recombinant N-terminal His6-tagged human STK3 (18 to 311 residues) expressed in Escherichia coli assessed as melting temperature at 20 uM by thermal shift assay
T2 sequence (whole entry): T1 sequence (Q13188 whole entry)

[6] = molecular target: T3, Serine/threonine-protein kinase 4 (Homo sapiens, UniProt Q13043)
T3 sequence (Q13043 whole entry): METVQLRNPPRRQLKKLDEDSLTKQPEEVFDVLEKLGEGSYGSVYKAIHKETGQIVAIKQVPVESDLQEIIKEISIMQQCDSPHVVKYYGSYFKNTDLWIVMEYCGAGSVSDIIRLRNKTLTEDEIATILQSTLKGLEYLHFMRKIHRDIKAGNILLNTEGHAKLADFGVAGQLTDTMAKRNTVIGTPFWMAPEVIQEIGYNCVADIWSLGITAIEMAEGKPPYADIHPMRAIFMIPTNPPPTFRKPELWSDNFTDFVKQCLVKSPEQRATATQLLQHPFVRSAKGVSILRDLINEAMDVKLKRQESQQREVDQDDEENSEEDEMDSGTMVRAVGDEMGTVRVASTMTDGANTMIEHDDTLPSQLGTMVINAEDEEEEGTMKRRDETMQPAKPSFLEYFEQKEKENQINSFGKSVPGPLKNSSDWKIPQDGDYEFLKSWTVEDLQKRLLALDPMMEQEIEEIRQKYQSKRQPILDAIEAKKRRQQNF

[7] = molecular target: T3, Serine/threonine-protein kinase 4; remark: listed apart in the source
Description: Displacement of K5 tracer from full length C-terminal NanoLuc fused human STK4 expressed in HEK293T cells incubated for 2 hrs by NanoBRET assay

[8] = molecular target: T2, Serine/threonine-protein kinase 3 (Homo sapiens); test: Inhibition of STK3 in HEK293 cells assessed as increase in YAP/TAZ-TEAD activity at 10 uM incubated for 48 hrs by Dual-Glo luciferase assay; format: cell-based
[9] = molecular target: T1, Serine/threonine-protein kinase 3; test: Binding affinity to recombinant N-terminal His6-tagged human STK3 (18 to 311 residues) expressed in Escherichia coli assessed as dissociation constant by isothermal titration calorimetry
[10] = molecular target: T3, Serine/threonine-protein kinase 4; test: Binding affinity to recombinant N-terminal His6-tagged human STK4 (43 to 431 residues) expressed in Escherichia coli assessed as dissociation constant by isothermal titration calorimetry
[11] = molecular target: T4, Serine/threonine-protein kinase 4 (Homo sapiens) (UniProt Q13043); conditions: dose 20.0 µM
T4 sequence (whole entry): T3 sequence (Q13043 whole entry)
Description: Inhibition of recombinant N-terminal His6-tagged human STK4 (43 to 431 residues) expressed in Escherichia coli assessed as melting temperature at 20 uM by thermal shift assay (Rvb = 55 degreeC)

[12] = molecular target: T3, Serine/threonine-protein kinase 4; remark: listed apart in the source
[13] = substrate: Clc1cccc(-c2c[nH]c3ncnc(N4CCOCC4)c23)c1; conditions: Homo sapiens; time 165.0 min

Leucine-rich repeat serine/threonine-protein kinase 2, sequence (Q5S007 whole entry, the tested form may be a part): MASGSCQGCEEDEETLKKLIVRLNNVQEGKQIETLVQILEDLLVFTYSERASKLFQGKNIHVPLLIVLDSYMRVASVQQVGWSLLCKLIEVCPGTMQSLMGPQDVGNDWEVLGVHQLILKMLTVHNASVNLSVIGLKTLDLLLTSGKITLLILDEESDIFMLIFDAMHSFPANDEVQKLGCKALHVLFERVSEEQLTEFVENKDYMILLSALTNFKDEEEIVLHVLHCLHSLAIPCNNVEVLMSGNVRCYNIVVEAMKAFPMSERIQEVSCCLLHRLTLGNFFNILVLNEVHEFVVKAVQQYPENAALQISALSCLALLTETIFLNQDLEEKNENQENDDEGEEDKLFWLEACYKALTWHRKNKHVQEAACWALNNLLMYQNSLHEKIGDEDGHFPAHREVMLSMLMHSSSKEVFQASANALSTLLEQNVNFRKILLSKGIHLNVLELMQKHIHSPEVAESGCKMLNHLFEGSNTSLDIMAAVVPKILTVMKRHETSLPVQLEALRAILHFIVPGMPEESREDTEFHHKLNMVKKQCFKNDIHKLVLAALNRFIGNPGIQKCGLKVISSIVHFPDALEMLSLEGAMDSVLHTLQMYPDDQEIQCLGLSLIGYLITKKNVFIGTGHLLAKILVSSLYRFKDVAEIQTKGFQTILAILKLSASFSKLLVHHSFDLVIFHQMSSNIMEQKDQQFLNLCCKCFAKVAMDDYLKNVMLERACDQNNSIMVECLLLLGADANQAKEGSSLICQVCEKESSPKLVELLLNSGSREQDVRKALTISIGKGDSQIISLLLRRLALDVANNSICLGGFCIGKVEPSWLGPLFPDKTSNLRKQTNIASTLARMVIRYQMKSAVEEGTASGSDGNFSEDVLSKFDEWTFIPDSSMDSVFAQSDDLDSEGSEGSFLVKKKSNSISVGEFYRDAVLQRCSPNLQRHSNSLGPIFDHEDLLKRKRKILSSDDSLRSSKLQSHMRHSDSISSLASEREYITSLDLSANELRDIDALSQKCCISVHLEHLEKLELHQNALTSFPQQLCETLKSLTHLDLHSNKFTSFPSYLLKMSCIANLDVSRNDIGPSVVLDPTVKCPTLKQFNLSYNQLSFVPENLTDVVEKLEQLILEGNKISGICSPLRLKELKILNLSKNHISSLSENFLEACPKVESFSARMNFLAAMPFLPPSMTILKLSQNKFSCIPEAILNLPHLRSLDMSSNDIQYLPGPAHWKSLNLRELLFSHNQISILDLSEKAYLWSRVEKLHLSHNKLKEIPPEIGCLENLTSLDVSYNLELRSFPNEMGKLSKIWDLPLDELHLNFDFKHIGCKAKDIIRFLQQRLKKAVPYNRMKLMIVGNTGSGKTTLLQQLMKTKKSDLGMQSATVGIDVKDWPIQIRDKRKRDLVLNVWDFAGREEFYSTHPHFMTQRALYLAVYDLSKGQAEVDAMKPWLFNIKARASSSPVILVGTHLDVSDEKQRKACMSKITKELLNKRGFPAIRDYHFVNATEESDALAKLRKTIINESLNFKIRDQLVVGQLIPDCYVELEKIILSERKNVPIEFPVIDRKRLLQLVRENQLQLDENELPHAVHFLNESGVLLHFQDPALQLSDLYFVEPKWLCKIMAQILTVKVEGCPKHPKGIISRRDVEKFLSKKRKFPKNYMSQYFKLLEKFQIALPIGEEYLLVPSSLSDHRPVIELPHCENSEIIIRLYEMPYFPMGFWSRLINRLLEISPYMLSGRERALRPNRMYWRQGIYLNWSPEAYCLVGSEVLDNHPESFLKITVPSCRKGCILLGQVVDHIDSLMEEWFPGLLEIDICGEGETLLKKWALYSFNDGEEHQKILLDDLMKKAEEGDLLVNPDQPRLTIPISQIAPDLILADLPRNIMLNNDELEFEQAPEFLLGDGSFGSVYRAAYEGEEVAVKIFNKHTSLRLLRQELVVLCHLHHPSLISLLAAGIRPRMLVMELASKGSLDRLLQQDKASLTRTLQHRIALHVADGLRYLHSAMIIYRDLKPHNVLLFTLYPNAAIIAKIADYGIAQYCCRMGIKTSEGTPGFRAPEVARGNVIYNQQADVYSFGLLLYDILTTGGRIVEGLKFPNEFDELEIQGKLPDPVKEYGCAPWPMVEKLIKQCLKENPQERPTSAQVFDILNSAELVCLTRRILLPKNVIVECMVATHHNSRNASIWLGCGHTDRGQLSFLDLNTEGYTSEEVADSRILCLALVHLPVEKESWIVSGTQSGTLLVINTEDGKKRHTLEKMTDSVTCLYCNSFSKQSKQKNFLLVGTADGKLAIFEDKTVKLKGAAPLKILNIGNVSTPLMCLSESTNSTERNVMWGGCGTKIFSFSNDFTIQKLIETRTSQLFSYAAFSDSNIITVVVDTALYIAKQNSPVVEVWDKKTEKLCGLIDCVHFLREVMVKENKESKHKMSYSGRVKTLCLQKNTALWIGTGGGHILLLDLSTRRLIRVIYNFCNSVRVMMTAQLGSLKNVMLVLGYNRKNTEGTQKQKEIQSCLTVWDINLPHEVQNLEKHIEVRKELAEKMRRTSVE

CC1(N)CCN(c2ncnc3[nH]cc(-c4cccc(Cl)c4)c23)CC1
concentration at 0.5 h [1]: > 1400 nM
IC50 [2]: 278 nM

N#Cc1cccc(-c2c[nH]c3ncnc(N4CCOCC4)c23)c1
IC50 [3]: 84 nM
IC50 [4]: 197 nM

c1csc(-c2c[nH]c3ncnc(N4CCOCC4)c23)c1
IC50 [2]: 267 nM

OCCCNc1ncnc2[nH]cc(-c3cccc(Cl)c3)c12
concentration at 0.5 h [1]: > 1400 nM
IC50 [3]: 2490 nM
IC50 [2]: 173 nM
IC50 [4]: 668 nM

Clc1cccc(-c2c[nH]c3ncnc(NCC4CC4)c23)c1
IC50 [2]: 213 nM

CCN(CCO)c1ncnc2[nH]cc(-c3cccc(Cl)c3)c12
IC50 [2]: 226 nM

COc1cccc(-c2c[nH]c3ncnc(N4CCOCC4)c23)c1
IC50 [2]: 766 nM

Clc1cccc(-c2c[nH]c3ccnc(N4CCOCC4)c23)c1
IC50 [2]: > 10000 nM

Clc1cccc(-c2c[nH]c3ncnc(N4CCCCC4)c23)c1
concentration at 0.5 h [1]: > 1400 nM
IC50 [3]: 1140 nM
IC50 [2]: 167 nM
ΔTm [5]: > 5.2 °C
IC50 [4]: 1100 nM

CC(CO)CN(C)c1ncnc2[nH]cc(-c3cccc(Cl)c3)c12 (stereo not given)
concentration at 0.5 h [1]: > 1400 nM
IC50 [3]: 7140 nM
IC50 [6]: 38 nM
IC50 [7]: 444 nM
IC50 [2]: 58 nM
IC50 [4]: 289 nM

CNC1CCN(c2ncnc3[nH]cc(-c4cccc(Cl)c4)c23)CC1
concentration at 0.5 h [1]: > 1400 nM
IC50 [3]: 3540 nM

Fc1ccccc1-c1c[nH]c2ncnc(N3CCOCC3)c12
IC50 [2]: 558 nM

COc1ccccc1-c1c[nH]c2ncnc(N3CCOCC3)c12
IC50 [2]: 230 nM

Clc1cccc(-c2n[nH]c3ncnc(N4CCOCC4)c23)c1
IC50 [6]: 1610 nM
IC50 [2]: 4800 nM

Cc1cccc(-c2c[nH]c3ncnc(N4CCOCC4)c23)c1
concentration at 0.5 h [1]: > 1400 nM
IC50 [3]: 127 nM
IC50 [2]: 121 nM
IC50 [4]: 434 nM

CN(C)c1ncnc2[nH]cc(-c3cccc(Cl)c3)c12
IC50 [2]: 349 nM

Clc1cccc(-c2coc3ncnc(N4CCOCC4)c23)c1
IC50 [2]: > 10000 nM

Clc1cccc(-c2c[nH]c3nccc(N4CCOCC4)c23)c1
concentration at 0.5 h [1]: > 1400 nM
IC50 [3]: 121 nM
inhibition [8]: Active
Kd [9]: 48 nM
IC50 [6]: 66 nM
Kd [10]: 158 nM
IC50 [7]: 192 nM
IC50 [2]: 119 nM
Tm [11]: 63.6 °C
IC50 [4]: 373 nM

Cc1ccc(-c2c[nH]c3ncnc(N4CCOCC4)c23)cc1
inhibition [8]: inactive
IC50 [2]: 2020 nM

c1coc(-c2c[nH]c3ncnc(N4CCOCC4)c23)c1
IC50 [2]: 487 nM

CN1C(=O)c2sccc2N(C)c2nc(Nc3ccc(S(N)(=O)=O)cc3)ncc21
IC50 [7]: 1040 nM

c1nc(N2CCOCC2)c2c(-c3ccoc3)c[nH]c2n1
IC50 [2]: 986 nM

c1ccc(-c2c[nH]c3ncnc(N4CCOCC4)c23)cc1
IC50 [6]: 183 nM
IC50 [2]: 197 nM

Cc1ccccc1-c1c[nH]c2ncnc(N3CCOCC3)c12
inhibition [8]: inactive
IC50 [6]: 2400 nM
IC50 [2]: 6900 nM

Fc1ccc(-c2c[nH]c3ncnc(N4CCOCC4)c23)cc1
concentration at 0.5 h [1]: > 1400 nM
IC50 [2]: 766 nM

Clc1cccc(-c2csc3ncnc(N4CCOCC4)c23)c1
IC50 [2]: > 10000 nM

CN(CCO)c1ncnc2[nH]cc(-c3cccc(Cl)c3)c12
concentration at 0.5 h [1]: > 1400 nM
IC50 [3]: 1520 nM
IC50 [6]: 79 nM
IC50 [7]: 406 nM
IC50 [2]: 117 nM
IC50 [4]: 631 nM

CC1(O)CCN(c2ncnc3[nH]cc(-c4cccc(Cl)c4)c23)CC1
IC50 [2]: 189 nM

Fc1cccc(-c2c[nH]c3ncnc(N4CCOCC4)c23)c1
concentration at 0.5 h [1]: > 1400 nM
IC50 [3]: 246 nM
inhibition [8]: Active
IC50 [2]: 191 nM
ΔTm [5]: > 5.2 °C
IC50 [4]: 373 nM

Clc1cccc(-c2c[nH]c3ncnc(N4CCOCC4)c23)c1
concentration at 0.5 h [1]: > 1400 nM
IC50 [3]: 264 nM
Ki [12]: 50 nM
IC50 [6]: 35 nM
Kd [10]: 147 nM
IC50 [7]: 320 nM
Tm [11]: 63.8 °C

B1: Serine/threonine-protein kinase 4 (Homo sapiens), Q13043 (protein)
chain: T3 sequence (Q13043 whole entry)
Km [13]: 140 µM
